Key:
[1] = system: immune cells in blood; assay: Immune cell profiles in blood (flow cytometry) after GSNO and aCTLA-4; assay type: in vivo, mice; details: CD4+T, CD8+T, NKT populations
Protocol: Immune cells in blood were collected and profiled to delineate the systemic immunity in the combinational use of GSNO and aCTLA-4 (FIG. 29). In brief, ACK lysis buffer was treated to the blood taken on day 9 to harvest immune cells in blood by removing red blood cells. All cells were stored on ice<2 h prior to use. Cells for flow cytometry were prepared by six steps with PBS, FACS buffer, or permeabilization buffer (eBioscience™ Foxp3/Transcription Factor Staining Buffer Set, Invitrogen™) wash; 2.4G2 staining on ice for 5 min, Zombie Aqua fixable viability dye staining at room temperature for 30 min, […]-MHCI-PE tetramer (NIH Tetramer Core Facility, Atlanta, Georgia) staining on ice for 15 min, antibody mixtures staining on ice for 30 min, fixing and permeabilizing with Foxp3 Fixation/Permeabilization working solution (eBioscience™ Foxp3/Transcription Factor Staining Buffer Set, Invitrogen™) on ice for 60 min, and FoxP3 staining on ice for 75 min. LSR Fortessa flow cytometry and flowJo were employed to analyze and profiles the stained cells.

[2] = system: B16F10-OVA tumor; assay: GSNO (i.t.) and aCTLA-4 (i.p.) therapy without hydrogel, dual tumor model; assay type: in vivo, mice; details: GSNO 480 μg kg^−1 i.t. day 7; aCTLA-4 100 μg mouse^−1 i.p. day 8, 11, 14; compared to saline
Protocol: In brief, 10^5 B16F10-OVA (30 μL) was inoculated in left dorsal skin on day 0 and in right dorsal skin on day 4 to establish dual tumor model. 30 μL of saline or GSNO (480 μg kg ^−1) was administered to the left tumor on day 7 and 30 μL of aCTLA-4 (100 μg mouse^−1) was administered intraperitoneally on day 8, 11, 14.

[3] = Absorption/fluorescence and photostability of IR780 exposed to daylight; assay type: physicochemical; details: 10% ethanol
[4] = system: B16F10-OVA tumor and TdLNs; details: 15 μL of 0.016 mg mL^−1 IR780 intratumoral, IVIS 24 h after injection

| SMILES | systemic activation and expansion of T cell, NK and NKT in blood [1] | therapeutic effects (1º and 2º tumor growth) [2] | time to complete photobleaching [3] | IR780 signal in injected tumor tissues and TdLNs [4] |
| --- | --- | --- | --- | --- |
| N[C@@H](CCC(=O)N[C@@H](CSN=O)C(=O)NCC(=O)O)C(=O)O [GSNO, S-nitrosoglutathione] | failed to induce systemic activation and expansion of T cell, NK and NKT response | did not lead to any therapeutic effects | – | – |
| CCCN1C(=CC=C2CCCC(C=CC3=[N+](CCC)c4ccccc4C3(C)C)=C2Cl)C(C)(C)c2ccccc21.[I-] [IR780, IR780 iodide] | – | – | ≤ 24 h | cleared quickly from the injected tumor tissues and exhibited negligible signals in the TdLNs |

Source: patent US20240139104A1, “MICELLE RELEASING THERMOSENSITIVE HYDROGELS AS A THERAPEUTIC DELIVERY SYSTEM” (GEORGIA TECH RESEARCH CORPORATION, priority 2021, published 2024)
